Source: ChEMBL document CHEMBL1141569, “Synthesis and antimicrobial activity of 3-arylamino-1-chloropropan-2-ols” (Bioorg Med Chem Lett, 2008)
In brackets after ≈: the same amount, converted by molar mass.

Legend:
Aspergillus fumigatus [1] = assay: Antifungal activity against Aspergillus fumigatus at 5.85 ug/mL; assay type: functional
Aspergillus flavus [2] = assay: Antifungal activity against Aspergillus flavus assessed as inhibition per disc by disc diffusion method; assay type: functional
Aspergillus flavus [3] = assay: Antifungal activity against Aspergillus flavus assessed as inhibition per disc by percent spore germination inhibition method; assay type: functional
Aspergillus fumigatus [4] = assay: Antifungal activity against Aspergillus fumigatus assessed as inhibition per disc by microbroth dilution assay; assay type: functional
Streptococcus pneumoniae = assay: Antibacterial activity against Streptococcus pneumoniae by micro-broth dilution assay; assay type: functional
Aspergillus niger [5] = assay: Antifungal activity against Aspergillus niger assessed as inhibition per disc by microbroth dilution assay; assay type: functional
Pseudomonas aeruginosa [6] = assay: Antibacterial activity against Pseudomonas aeruginosa by microbroth dilution assay; assay type: functional
Aspergillus fumigatus [7] = assay: Antifungal activity against Aspergillus fumigatus assessed as inhibition per disc by percent spore germination inhibition method; assay type: functional
Aspergillus niger [8] = assay: Antifungal activity against Aspergillus niger assessed as inhibition per disc by percent spore germination inhibition method; assay type: functional
Staphylococcus aureus = assay: Antibacterial activity against Staphylococcus aureus by microbroth dilution assay; assay type: functional
Aspergillus flavus [9] = assay: Antifungal activity against Aspergillus flavus assessed as inhibition per disc by microbroth dilution assay; assay type: functional
[10] = Toxicity in human erythrocytes assessed as hemolysis upto 250 ug/mL; assay type: cell-based; settings: erythrocyte
Candida albicans [11] = assay: Antifungal activity against Candida albicans assessed as inhibition per disc by percent growth inhibition assay; assay type: functional
Aspergillus fumigatus [12] = assay: Antifungal activity against Aspergillus fumigatus assessed as inhibition per disc by disc diffusion method; assay type: functional
Salmonella typhi [13] = assay: Antibacterial activity against Salmonella typhi by microbroth dilution assay; assay type: functional, Salmonella enterica subsp. enterica serovar Typhi; settings: Salmonella enterica
Aspergillus niger [14] = assay: Antifungal activity against Aspergillus niger assessed as inhibition per disc by disc diffusion method; assay type: functional
Salmonella typhi [15] = assay: Antibacterial activity against Salmonella typhi at 31.25 ug/mL; assay type: functional, Salmonella enterica subsp. enterica serovar Typhi; settings: Salmonella enterica
Candida albicans [16] = assay: Antifungal activity against Candida albicans at 31.25 ug/mL; assay type: functional
[17] = Toxicity in human erythrocytes assessed as hemolysis upto 4000 ug/mL; assay type: cell-based; settings: erythrocyte
Pseudomonas aeruginosa [18] = assay: Antibacterial activity against Pseudomonas aeruginosa at 31.25 ug/mL; assay type: functional
[19] = Toxicity in human erythrocytes assessed as hemolysis upto 3.91 ug/mL; assay type: cell-based, Erythrocyte; settings: read-out: Activity
[20] = Toxicity in human erythrocytes assessed as hemolysis upto 62.5 ug/mL; assay type: cell-based, Erythrocyte; settings: read-out: Activity
[21] = Toxicity in human erythrocytes assessed as hemolysis upto 1.70 ug/mL; assay type: cell-based, Erythrocyte; settings: read-out: Activity

Compound | MIC (Aspergillus flavus [2]) | MIC (Aspergillus flavus [3]) | MIC (Aspergillus fumigatus [4]) | MIC (Streptococcus pneumoniae) | MIC (Aspergillus niger [5]) | MIC (Pseudomonas aeruginosa [6]) | MIC (Aspergillus fumigatus [7]) | MIC (Aspergillus niger [8]) | MIC (Staphylococcus aureus) | MIC (Aspergillus flavus [9]) | Activity [10] | MIC (Candida albicans [11]) | MIC (Aspergillus fumigatus [12]) | MIC (Salmonella typhi [13]) | MIC (Aspergillus niger [14]) | other results
OC(CCl)CNc1ccccc1Cl (stereo unspecified) | 23.43 µg | 31.2 µg/mL (≈ 142 µM) | 31.2 µg/mL | 250 µg/mL (≈ 1140 µM) | 62.5 µg/mL | 62.5 µg/mL (≈ 284 µM) | 31.2 µg/mL (≈ 142 µM) | 62.5 µg/mL (≈ 284 µM) | 500 µg/mL (≈ 2270 µM) | 63.5 µg/mL | Non-toxic | 250 µg/mL (≈ 1140 µM) | 11.71 µg | 250 µg/mL (≈ 1140 µM) | 23.43 µg | inhibition at 5.85 µg/mL (Aspergillus fumigatus [1]): 90%
OC(CCl)CNc1ccc(Cl)cc1Cl (stereo unspecified) | 46.87 µg | 62.5 µg/mL (≈ 246 µM) | 62.5 µg/mL | 125 µg/mL (≈ 491 µM) | 125 µg/mL | 62.5 µg/mL (≈ 246 µM) | 62.5 µg/mL (≈ 246 µM) | 125 µg/mL (≈ 491 µM) | 500 µg/mL (≈ 1960 µM) | 125 µg/mL | Non-toxic | 62.5 µg/mL (≈ 246 µM) | 23.43 µg | 31.3 µg/mL (≈ 123 µM) | 93.75 µg | inhibition at 31.25 µg/mL (Salmonella typhi [15]): 90%
OC(CCl)CNc1cc(Cl)ccc1Cl (stereo unspecified) | 93.75 µg | 62.5 µg/mL (≈ 246 µM) | 125 µg/mL | 500 µg/mL (≈ 1960 µM) | 125 µg/mL | 62.5 µg/mL (≈ 246 µM) | 125 µg/mL (≈ 491 µM) | 125 µg/mL (≈ 491 µM) | 250 µg/mL (≈ 982 µM) | 125 µg/mL | Non-toxic | 62.5 µg/mL (≈ 246 µM) | 46.87 µg | 250 µg/mL (≈ 982 µM) | 93.75 µg | 
OC(CCl)CNc1c(Cl)cccc1Cl (stereo unspecified) | 46.87 µg | 62.5 µg/mL (≈ 246 µM) | 125 µg/mL | 500 µg/mL (≈ 1960 µM) | 250 µg/mL | 125 µg/mL (≈ 491 µM) | 125 µg/mL (≈ 491 µM) | 125 µg/mL (≈ 491 µM) | 500 µg/mL (≈ 1960 µM) | 125 µg/mL | Non-toxic | 31.2 µg/mL (≈ 123 µM) | 46.87 µg | 500 µg/mL (≈ 1960 µM) | 93.75 µg | inhibition at 31.25 µg/mL (Candida albicans [16]): 90%
OC(CCl)CNc1cccc(Cl)c1 (stereo unspecified) | 46.87 µg | 62.5 µg/mL (≈ 284 µM) | 62.5 µg/mL | 500 µg/mL (≈ 2270 µM) | 62.5 µg/mL | 250 µg/mL (≈ 1140 µM) | 62.5 µg/mL (≈ 284 µM) | 62.5 µg/mL (≈ 284 µM) | 1000 µg/mL (≈ 4540 µM) | 62.5 µg/mL | Non-toxic | 125 µg/mL (≈ 568 µM) | 23.43 µg | 500 µg/mL (≈ 2270 µM) | 46.87 µg | 
OC(CCl)CNc1ccc(Cl)cc1 (stereo unspecified) | 11.71 µg | 15.6 µg/mL (≈ 71 µM) | 15.6 µg/mL | 500 µg/mL (≈ 2270 µM) | 31.2 µg/mL | 125 µg/mL (≈ 568 µM) | 15.6 µg/mL (≈ 71 µM) | 31.2 µg/mL (≈ 142 µM) | 1000 µg/mL (≈ 4540 µM) | 31.2 µg/mL | Non-toxic | 62.5 µg/mL (≈ 284 µM) | 5.85 µg | 62.5 µg/mL (≈ 284 µM) | 23.43 µg | inhibition at 5.85 µg/mL (Aspergillus fumigatus [1]): 90%; Activity [17]: Non-toxic
OC(CCl)CNc1cccc(Cl)c1Cl (stereo unspecified) | 46.87 µg | 125 µg/mL (≈ 491 µM) | 125 µg/mL | 62.5 µg/mL (≈ 246 µM) | 125 µg/mL | 62.5 µg/mL (≈ 246 µM) | 62.5 µg/mL (≈ 246 µM) | 125 µg/mL (≈ 491 µM) | 500 µg/mL (≈ 1960 µM) | 125 µg/mL | Non-toxic | 62.5 µg/mL (≈ 246 µM) | 46.87 µg | 62.5 µg/mL (≈ 246 µM) | 93.75 µg | 
OC(CCl)CNc1ccc(Cl)c(Cl)c1 (stereo unspecified) | 23.43 µg | 31.2 µg/mL (≈ 123 µM) | 31.2 µg/mL | 125 µg/mL (≈ 491 µM) | 62.5 µg/mL | 31.3 µg/mL (≈ 123 µM) | 31.2 µg/mL (≈ 123 µM) | 62.5 µg/mL (≈ 246 µM) | 62.5 µg/mL (≈ 246 µM) | 62.5 µg/mL | Non-toxic | 125 µg/mL (≈ 491 µM) | 11.71 µg | 62.5 µg/mL (≈ 246 µM) | 46.87 µg | inhibition at 31.25 µg/mL (Pseudomonas aeruginosa [18]): 90%
OC(CCl)CNc1cc(Cl)cc(Cl)c1 (stereo unspecified) | 46.87 µg | 125 µg/mL (≈ 491 µM) | 125 µg/mL | 250 µg/mL (≈ 982 µM) | 250 µg/mL | 62.5 µg/mL (≈ 246 µM) | 125 µg/mL (≈ 491 µM) | 250 µg/mL (≈ 982 µM) | 125 µg/mL (≈ 491 µM) | 125 µg/mL | Non-toxic | 31.2 µg/mL (≈ 123 µM) | 46.87 µg | 31.3 µg/mL (≈ 123 µM) | 93.75 µg | inhibition at 31.25 µg/mL (Candida albicans [16]): 90%; inhibition at 31.25 µg/mL (Salmonella typhi [15]): 90%
C[C@@H]1[C@H](O)[C@@H](C)/C=C/C=C/C=C/C=C/C=C/C=C/C=C/[C@H](O[C@@H]2O[C@H](C)[C@@H](O)[C@H](N)[C@@H]2O)C[C@@H]2O[C@](O)(C[C@@H](O)C[C@@H](O)[C@H](O)CC[C@@H](O)C[C@@H](O)CC(=O)O[C@H]1C)C[C@H](O)[C@H]2C(=O)O (stereo in doubt) [AMPHOTERICIN B] | 0.73 µg | 1.95 µg/mL (≈ 2.11 µM) | 1.95 µg/mL |  | 1.95 µg/mL |  | 1.95 µg/mL (≈ 2.11 µM) | 1.95 µg/mL (≈ 2.11 µM) |  | 1.95 µg/mL |  |  | 0.73 µg |  | 0.73 µg | hemolysis at 3.91 ug/mL [19]: 5.52%; hemolysis at 62.5 ug/mL [20]: 100%; hemolysis at 1.7 ug/mL [21]: 50%
CN(C)[C@@H]1C(O)=C(C(N)=O)C(=O)[C@@]2(O)C(O)=C3C(=O)c4c(O)cccc4[C@@](C)(O)[C@H]3C[C@@H]12 [TETRACYCLINE] |  |  |  | 7.9 µg/mL (≈ 17.8 µM) |  | 7.9 µg/mL (≈ 17.8 µM) |  |  | 7.9 µg/mL (≈ 17.8 µM) |  |  |  |  | 15.6 µg/mL (≈ 35.1 µM) |  | hemolysis at 3.91 ug/mL [19]: 4.26%; hemolysis at 62.5 ug/mL [20]: 11.7%
